According to US9040067B2, “Disinfecting and antimicrobial compositions” (priority 2005, dated 2015):

How the values were obtained:
Assay type in all cases: cell-based
Salmonella typhimurium = assay: MIC/MLC in brain heart infusion broth
Protocol: (§1) The tests were carried out in 10 ml of brain heart infusion broth. The esters were serially diluted in brain heart infusion broth of samples of, 0.1, 0.2, 0.3, 0.4 and 0.5/10 ml and challenged with 0.1 ml of 1/100 dilution of 24 hr old brain heart infusion bacterial culture. The lowest concentration determined the minimum inhibitory concentration (MIC). The samples were observed after 48 hrs at 37° C. A loopful from tubes without growth were plated on BHI agar plates and observed for growth for 24 to 48 hrs at 37° C. The samples with the lowest concentration of the ester without bacterial growth on the plates represented the minimum lethal concentration (MLC).

Staphylococcus aureus = assay: MIC/MLC in brain heart infusion broth
Protocol: The tests were carried out in 10 ml of brain heart infusion broth. […] The lowest concentration determined the minimum inhibitory concentration (MIC). The samples were observed after 48 hrs at 37° C. A loopful from tubes without growth were plated on BHI agar plates and observed for growth for 24 to 48 hrs at 37° C. The samples with the lowest concentration of the ester without bacterial growth on the plates represented the minimum lethal concentration (MLC).
(§2) A series of samples of (a) methyl lactate, (b) ethyl lactate and (c) butyl lactate, alone, and in admixture with varying amounts of decyl lactate and sodium dodecyl sulfates were used to test minimum inhibitory activity (MIC) by the method described in Example II, against the cultures of E. coli 0157 H7, Listeria monocytogenes, Staphylococcus aureus, Salmonella typhi, and Pseudomonas aeruginosa.

Saccharomyces cerevisiae = assay: MIC and MLC against yeast in Sab. broth; conditions: for Lethal (MLC) Concentration 1% / Inhibitory (MIC) Concentration 1%: 1% ester; for Lethal (MLC) Concentration 1.5% / Inhibitory (MIC) Concentration 1.5%: 1.5% ester; for Lethal (MLC) Concentration 2% / Inhibitory (MIC) Concentration 2%: 2% ester; for Lethal (MLC) Concentration 3% / Inhibitory (MIC) Concentration 3%: 3% ester; for Lethal (MLC) Concentration 4% / Inhibitory (MIC) Concentration 4%: 4% ester; for Lethal (MLC) Concentration 1%: key: + = growth (inactive); − = no growth (active); for Lethal (MLC) Concentration 1.5%: key: + = growth (inactive); − = no growth (active); for Lethal (MLC) Concentration 2%: key: + = growth (inactive); − = no growth (active); for Lethal (MLC) Concentration 3%: key: + = growth (inactive); − = no growth (active); for Lethal (MLC) Concentration 4%: key: + = growth (inactive); − = no growth (active)
Protocol: A 0.1 ml of 1/100 dilution of 48 hr old culture of S. cerevisiae was used as inoculum. The test was performed using Sab. broth. The tubes were incubated at room temperature 25° C. The test was read after 48 hrs.

Salmonella typhi = assay: MIC in brain heart infusion broth; conditions: Table 4; note: key: + = growth (inactive); − = no growth (active)
Protocol: as §1, §2

Pseudomonas aeruginosa = assay: MIC/MLC in brain heart infusion broth; conditions: for MIC, Concentration of Lactic Esters 0.5%: 0.5% ester; for MIC, Concentration of Lactic Esters 1%: 1% ester; for MIC, Concentration of Lactic Esters 2%: 2% ester; for MIC, Concentration of Lactic Esters 3%: 3% ester; for MIC, Concentration of Lactic Esters 4%: 4% ester; for MIC, Concentration of Lactic Esters 5%: 5% ester; for MIC, Concentration of Lactic Esters 0.5%: key: + = growth (inactive); − = no growth (active); for MIC, Concentration of Lactic Esters 1%: key: + = growth (inactive); − = no growth (active); for MIC, Concentration of Lactic Esters 2%: key: + = growth (inactive); − = no growth (active); for MIC, Concentration of Lactic Esters 3%: key: + = growth (inactive); − = no growth (active); for MIC, Concentration of Lactic Esters 4%: key: + = growth (inactive); − = no growth (active); for MIC, Concentration of Lactic Esters 5%: key: + = growth (inactive); − = no growth (active)
Protocol: as §1, §2

Listeria monocytogenes = assay: MIC/MLC in brain heart infusion broth
Protocol: as §1, §2

E. coli 0157;H7 = assay: MIC/MLC in brain heart infusion broth; note: key: + = growth (inactive); − = no growth (active)
Protocol: as §1, §2

[1] = 1%, second MLC line of organism
[2] = 2%, second MLC line of organism
[3] = 3%, second MLC line of organism
[4] = 4%, second MLC line of organism
[5] = 5%, second MLC line of organism

SMILES: CCOC(=O)C(C)O (stereo not shown) [Ethyl lactate, ethyl lactate]
- MLC, Concentration of Ethyl lactate 0.5% (Salmonella typhimurium; first MLC line of organism): +
- MLC, Concentration of Ethyl lactate 0.5% (Salmonella typhimurium; second MLC line of organism): +
- MLC, Concentration of Ethyl lactate 1% (Salmonella typhimurium; first MLC line of organism): +
- MLC, Concentration of Ethyl lactate 1% (Salmonella typhimurium; second MLC line of organism): +
- MLC, Concentration of Ethyl lactate 2% (Salmonella typhimurium; first MLC line of organism): +
- MLC, Concentration of Ethyl lactate 2% (Salmonella typhimurium; second MLC line of organism): +
- MLC, Concentration of Ethyl lactate 3% (Salmonella typhimurium; first MLC line of organism): +
- MLC, Concentration of Ethyl lactate 3% (Salmonella typhimurium; second MLC line of organism): +
- MLC, Concentration of Ethyl lactate 4% (Salmonella typhimurium; first MLC line of organism): −
- MLC, Concentration of Ethyl lactate 4% (Salmonella typhimurium; second MLC line of organism): +
- MLC, Concentration of Ethyl lactate 5% (Salmonella typhimurium; first MLC line of organism): −
- MLC, Concentration of Ethyl lactate 5% (Salmonella typhimurium; second MLC line of organism): +
- MLC, Concentration of Ethyl lactate 0.5% (Staphylococcus aureus; first MLC line of organism): +
- MLC, Concentration of Ethyl lactate 0.5% (Staphylococcus aureus; second MLC line of organism): +
- MIC, growth at 1% (Staphylococcus aureus; 1%, Table 4): +
- MLC, Concentration of Ethyl lactate 1% (Staphylococcus aureus; 1%, first MLC line of organism): +
- MLC, Concentration of Ethyl lactate 1% (Staphylococcus aureus; [1]): +
- MIC, growth at 2% (Staphylococcus aureus; 2%, Table 4): +
- MLC, Concentration of Ethyl lactate 2% (Staphylococcus aureus; 2%, first MLC line of organism): +
- MLC, Concentration of Ethyl lactate 2% (Staphylococcus aureus; [2]): +
- MIC, growth at 3% (Staphylococcus aureus; 3%, Table 4): +
- MLC, Concentration of Ethyl lactate 3% (Staphylococcus aureus; 3%, first MLC line of organism): +
- MLC, Concentration of Ethyl lactate 3% (Staphylococcus aureus; [3]): +
- MIC, growth at 4% (Staphylococcus aureus; 4%, Table 4): +
- MLC, Concentration of Ethyl lactate 4% (Staphylococcus aureus; 4%, first MLC line of organism): +
- MLC, Concentration of Ethyl lactate 4% (Staphylococcus aureus; [4]): +
- MIC, growth at 5% (Staphylococcus aureus; 5%, Table 4): +
- MLC, Concentration of Ethyl lactate 5% (Staphylococcus aureus; 5%, first MLC line of organism): −
- MLC, Concentration of Ethyl lactate 5% (Staphylococcus aureus; [5]): +
- Lethal (MLC) Concentration 1% (Saccharomyces cerevisiae): +
- Inhibitory (MIC) Concentration 1% (Saccharomyces cerevisiae; 48 hrs, 25° C): +
- Inhibitory (MIC) Concentration 1% (Saccharomyces cerevisiae; Sodium lauryl sulfate 200 ppm): +
- Lethal (MLC) Concentration 1% (Saccharomyces cerevisiae; Sodium lauryl sulfate 200 ppm): +
- Lethal (MLC) Concentration 1.5% (Saccharomyces cerevisiae): +
- Inhibitory (MIC) Concentration 1.5% (Saccharomyces cerevisiae; 48 hrs, 25° C): −
- Inhibitory (MIC) Concentration 1.5% (Saccharomyces cerevisiae; Sodium lauryl sulfate 200 ppm): −
- Lethal (MLC) Concentration 1.5% (Saccharomyces cerevisiae; Sodium lauryl sulfate 200 ppm): +
- Lethal (MLC) Concentration 2% (Saccharomyces cerevisiae): −
- Inhibitory (MIC) Concentration 2% (Saccharomyces cerevisiae; 48 hrs, 25° C): −
- Inhibitory (MIC) Concentration 2% (Saccharomyces cerevisiae; Sodium lauryl sulfate 200 ppm): −
- Lethal (MLC) Concentration 2% (Saccharomyces cerevisiae; Sodium lauryl sulfate 200 ppm): −
- Lethal (MLC) Concentration 3% (Saccharomyces cerevisiae): −
- Inhibitory (MIC) Concentration 3% (Saccharomyces cerevisiae; 48 hrs, 25° C): −
- Inhibitory (MIC) Concentration 3% (Saccharomyces cerevisiae; Sodium lauryl sulfate 200 ppm): −
- Lethal (MLC) Concentration 3% (Saccharomyces cerevisiae; Sodium lauryl sulfate 200 ppm): −
- Lethal (MLC) Concentration 4% (Saccharomyces cerevisiae): −
- Inhibitory (MIC) Concentration 4% (Saccharomyces cerevisiae; 48 hrs, 25° C): −
- Inhibitory (MIC) Concentration 4% (Saccharomyces cerevisiae; Sodium lauryl sulfate 200 ppm): −
- Lethal (MLC) Concentration 4% (Saccharomyces cerevisiae; Sodium lauryl sulfate 200 ppm): −
- MIC, growth at 1% (Salmonella typhi; 1%): +
- MIC, growth at 2% (Salmonella typhi; 2%): +
- MIC, growth at 3% (Salmonella typhi; 3%): +
- MIC, growth at 4% (Salmonella typhi; 4%): −
- MIC, growth at 5% (Salmonella typhi; 5%): −
- MIC, Concentration of Lactic Esters 0.5% (Pseudomonas aeruginosa; SDS 0.0 ppm): +
- MIC, Concentration of Lactic Esters 0.5% (Pseudomonas aeruginosa; SDS 50 ppm): −
- MIC, Concentration of Lactic Esters 0.5% (Pseudomonas aeruginosa; SDS 100 ppm): −
- MIC, Concentration of Lactic Esters 0.5% (Pseudomonas aeruginosa; SDS 200 ppm): −
- MLC, Concentration of Ethyl lactate 0.5% (Pseudomonas aeruginosa; first MLC line of organism): +
- MLC, Concentration of Ethyl lactate 0.5% (Pseudomonas aeruginosa; second MLC line of organism): +
- MIC, Concentration of Lactic Esters 1% (Pseudomonas aeruginosa; SDS 0.0 ppm): +
- MIC, Concentration of Lactic Esters 1% (Pseudomonas aeruginosa; SDS 50 ppm): −
- MIC, Concentration of Lactic Esters 1% (Pseudomonas aeruginosa; SDS 100 ppm): −
- MIC, Concentration of Lactic Esters 1% (Pseudomonas aeruginosa; SDS 200 ppm): −
- MLC, Concentration of Ethyl lactate 1% (Pseudomonas aeruginosa; first MLC line of organism): +
- MLC, Concentration of Ethyl lactate 1% (Pseudomonas aeruginosa; second MLC line of organism): +
- MIC, Concentration of Lactic Esters 2% (Pseudomonas aeruginosa; SDS 0.0 ppm): −
- MIC, Concentration of Lactic Esters 2% (Pseudomonas aeruginosa; SDS 50 ppm): −
- MIC, Concentration of Lactic Esters 2% (Pseudomonas aeruginosa; SDS 100 ppm): −
- MIC, Concentration of Lactic Esters 2% (Pseudomonas aeruginosa; SDS 200 ppm): −
- MLC, Concentration of Ethyl lactate 2% (Pseudomonas aeruginosa; first MLC line of organism): −
- MLC, Concentration of Ethyl lactate 2% (Pseudomonas aeruginosa; second MLC line of organism): +
- MIC, Concentration of Lactic Esters 3% (Pseudomonas aeruginosa; SDS 0.0 ppm): −
- MIC, Concentration of Lactic Esters 3% (Pseudomonas aeruginosa; SDS 50 ppm): −
- MIC, Concentration of Lactic Esters 3% (Pseudomonas aeruginosa; SDS 100 ppm): −
- MIC, Concentration of Lactic Esters 3% (Pseudomonas aeruginosa; SDS 200 ppm): −
- MLC, Concentration of Ethyl lactate 3% (Pseudomonas aeruginosa; first MLC line of organism): −
- MLC, Concentration of Ethyl lactate 3% (Pseudomonas aeruginosa; second MLC line of organism): +
- MIC, Concentration of Lactic Esters 4% (Pseudomonas aeruginosa; SDS 0.0 ppm): −
- MIC, Concentration of Lactic Esters 4% (Pseudomonas aeruginosa; SDS 50 ppm): −
- MIC, Concentration of Lactic Esters 4% (Pseudomonas aeruginosa; SDS 100 ppm): −
- MIC, Concentration of Lactic Esters 4% (Pseudomonas aeruginosa; SDS 200 ppm): −
- MLC, Concentration of Ethyl lactate 4% (Pseudomonas aeruginosa; first MLC line of organism): −
- MLC, Concentration of Ethyl lactate 4% (Pseudomonas aeruginosa; second MLC line of organism): −
- MIC, Concentration of Lactic Esters 5% (Pseudomonas aeruginosa; SDS 0.0 ppm): −
- MIC, Concentration of Lactic Esters 5% (Pseudomonas aeruginosa; SDS 50 ppm): −
- MIC, Concentration of Lactic Esters 5% (Pseudomonas aeruginosa; SDS 100 ppm): −
- MIC, Concentration of Lactic Esters 5% (Pseudomonas aeruginosa; SDS 200 ppm): −
- MLC, Concentration of Ethyl lactate 5% (Pseudomonas aeruginosa; first MLC line of organism): −
- MLC, Concentration of Ethyl lactate 5% (Pseudomonas aeruginosa; second MLC line of organism): −
- MLC, Concentration of Ethyl lactate 0.5% (Listeria monocytogenes; first MLC line of organism): +
- MLC, Concentration of Ethyl lactate 0.5% (Listeria monocytogenes; second MLC line of organism): +
- MIC, growth at 1% (Listeria monocytogenes; 1%, Table 4): +
- MLC, Concentration of Ethyl lactate 1% (Listeria monocytogenes; 1%, first MLC line of organism): +
- MLC, Concentration of Ethyl lactate 1% (Listeria monocytogenes; [1]): +
- MIC, growth at 2% (Listeria monocytogenes; 2%, Table 4): +
- MLC, Concentration of Ethyl lactate 2% (Listeria monocytogenes; 2%, first MLC line of organism): +
- MLC, Concentration of Ethyl lactate 2% (Listeria monocytogenes; [2]): +
- MIC, growth at 3% (Listeria monocytogenes; 3%, Table 4): +
- MLC, Concentration of Ethyl lactate 3% (Listeria monocytogenes; 3%, first MLC line of organism): +
- MLC, Concentration of Ethyl lactate 3% (Listeria monocytogenes; [3]): +
- MIC, growth at 4% (Listeria monocytogenes; 4%, Table 4): +
- MLC, Concentration of Ethyl lactate 4% (Listeria monocytogenes; 4%, first MLC line of organism): +
- MLC, Concentration of Ethyl lactate 4% (Listeria monocytogenes; [4]): +
- MIC, growth at 5% (Listeria monocytogenes; 5%, Table 4): +
- MLC, Concentration of Ethyl lactate 5% (Listeria monocytogenes; 5%, first MLC line of organism): +
- MLC, Concentration of Ethyl lactate 5% (Listeria monocytogenes; [5]): +
- MLC, Concentration of Ethyl lactate 0.5% (E. coli 0157;H7; first MLC line of organism): +
- MLC, Concentration of Ethyl lactate 0.5% (E. coli 0157;H7; second MLC line of organism): +
- MIC, growth at 1% (E. coli 0157;H7; 1%, Table 4): +
- MLC, Concentration of Ethyl lactate 1% (E. coli 0157;H7; 1%, first MLC line of organism): +
- MLC, Concentration of Ethyl lactate 1% (E. coli 0157;H7; [1]): +
- MIC, growth at 2% (E. coli 0157;H7; 2%, Table 4): +
- MLC, Concentration of Ethyl lactate 2% (E. coli 0157;H7; 2%, first MLC line of organism): −
- MLC, Concentration of Ethyl lactate 2% (E. coli 0157;H7; [2]): +
- MIC, growth at 3% (E. coli 0157;H7; 3%, Table 4): +
- MLC, Concentration of Ethyl lactate 3% (E. coli 0157;H7; 3%, first MLC line of organism): −
- MLC, Concentration of Ethyl lactate 3% (E. coli 0157;H7; [3]): −
- MIC, growth at 4% (E. coli 0157;H7; 4%, Table 4): −
- MLC, Concentration of Ethyl lactate 4% (E. coli 0157;H7; 4%, first MLC line of organism): −
- MLC, Concentration of Ethyl lactate 4% (E. coli 0157;H7; [4]): −
- MIC, growth at 5% (E. coli 0157;H7; 5%, Table 4): −
- MLC, Concentration of Ethyl lactate 5% (E. coli 0157;H7; 5%, first MLC line of organism): −
- MLC, Concentration of Ethyl lactate 5% (E. coli 0157;H7; [5]): −
